Laboratory results from patent US12514251B2, “Fused heterocyclic compounds and their use as pest control agents” (priority 2020, dated 2026).

What was measured:
Type in all cases: in vivo
Plutella xylostella = assay: Plutella xylostella, leaf dip method; settings: foliar, cabbage leaf dip, second instar larvae, 72 h after release, dead + moribund vs untreated control, read-out: percent mortality
Outline: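 Cabbage leaves were dipped for 10 s in compound diluted with 0.01% Triton-X, shade dried and offered singly to second instar larvae. Trays were held at 25° C. and 70% relative humidity. Dead plus moribund larvae were scored at 72 h, and percent mortality was expressed relative to untreated control.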

Myzus persicae = assay: Myzus persicae, leaf dip method; settings: foliar, capsicum leaf dip, third instar nymphs, 72 h after release, dead + moribund vs untreated control, read-out: percent mortality
Protocol: The leaf dip method was used for testing, wherein the required quantity of the compound was weighed and dissolved in a tube containing solvent solution. The tube was put on a vortex at 2000 rpm for 90 min for proper mixing, then diluted with 0.01% Triton-X solution to the desired test concentration. Capsicum leaves were dipped in the compound solution for 10 seconds, shade dried for 20 min and then placed, with the abaxial side of the leaf up, in single cells of a bio-assay tray containing 4 ml of a 1% agar-agar solution. Known numbers of third instar nymphs, collected in petri plates, were released into the cell with the treated leaf and the cell was covered with a perforated lid for better aeration. The trays were kept in a plant growth chamber at a temperature of 25° C. and a relative humidity of 70%. Observations on dead, moribund and alive nymphs were recorded 72 h after the release. Percent mortality was calculated by combining dead and moribund nymphs and comparing the result with the one of the untreated control.

Helicoverpa armigera = assay: Helicoverpa armigera, diet incorporation method; settings: third instar larvae, 96 h after release, dead + moribund vs untreated control, read-out: percent mortality
Protocol: (§1) The diet incorporation method was used, in which the required quantity of the test compound was weighed and dissolved in a tube containing solvent solution. The tube was put on a vortex at 2000 rpm for 90 min for proper mixing. Semi-synthetic diet was incorporated into this solution when the temperature was approximately 50° C. in the bioassay containers. Compound and diet were stirred thoroughly for proper mixing and allowed to cool for 30 min. The solidified diet was cut into equal pieces, and then each piece was transferred into one cell of a bio-assay tray. A single starved third instar larva was released into each of the cells of the bioassay trays and the tray was covered with a lid. The bio-assay trays were then kept under laboratory conditions at a temperature of 25° C. and a relative humidity of 70%. Observations on dead, moribund and alive larvae were recorded 96 h after the release of the larvae. Percent mortality was calculated by combining dead and moribund larvae and comparing the result to the one of the untreated control.

Nilaparvata lugens = assay: Nilaparvata lugens, seedling dip method; settings: paddy seedling dip, third instar nymphs, 72 h after release, dead + moribund vs untreated control, read-out: percent mortality
Protocol: The seedling dip method was used for testing, wherein the required quantity of the compound was weighed and dissolved in a tube containing solvent solution. The tube was put on a vortex at 2000 rpm for 90 min for proper mixing, then diluted with 0.01% Triton-X solution to the desired test concentration.
Paddy seedlings were dipped in the compound solution for 10 seconds, shade dried for 20 min and then the seedlings were placed in glass test tubes with the roots kept in water. 15 third instar nymphs were released into each test tube and the tubes were kept in a plant growth chamber at a temperature of 25° C. and relative humidity of 75%. Observations on dead, moribund and alive nymphs were recorded 72 h after the release. Percent mortality was calculated by combining dead and moribund nymphs and comparing the result to the one of the untreated control.

Spodoptera litura = assay: Spodoptera litura, diet incorporation method; settings: third instar larvae, 96 h after release, dead + moribund vs untreated control, read-out: percent mortality
Protocol: as §1, with “covered with the lid. The” for “covered with a lid. The”, “release of larvae. Percent” for “release of the larvae. Percent”

Bemisia tabaci = assay: Bemisia tabaci, leaf dip method; settings: foliar, brinjal leaf dip, whitefly adults, 72 h after release, dead + moribund vs untreated control, read-out: percent mortality
Protocol: The leaf dip method was used for testing, wherein the required quantity of the compound was weighed and dissolved in a tube containing solvent solution. The tube was put on a vortex at 2000 rpm for 90 min for proper mixing, then diluted with 0.01% Triton-X solution to get the desired test concentration. Brinjal leaves were dipped in the compound solution for 10 seconds; shade dried for 20 min and then placed, with the abaxial side of the leaf up, on 4 ml of a 1% agar-agar solution in respective perforated container caps. Known numbers of freshly emerged whitefly adults were collected, using a modified aspirator, and released into a perforated container in which the cap containing the treated leaf was placed. The containers were kept in a plant growth chamber at a temperature of 25° C. and relative humidity of 70%.
Observations on dead, moribund and alive adults were recorded 72 h after the release. Percent mortality was calculated by combining dead and moribund adults and comparing the result to the one of the untreated control. The compounds 55 87 and 198 were recorded ≥70 percent mortality @ 300 PPM.

SMILES	mortality at 300 ppm (Plutella xylostella)	mortality at 300 ppm (Myzus persicae)	mortality at 300 ppm (Helicoverpa armigera)	mortality at 300 ppm (Nilaparvata lugens)	mortality at 300 ppm (Spodoptera litura)	mortality at 300 ppm (Bemisia tabaci)
CCS(=O)(=O)c1cccnc1-c1ccn2nc(C(F)(F)F)cc2n1 [Compound 160, 5-(3-(ethylsulfonyl)pyridin-2-yl)-2-(trifluoromethyl)pyrazolo[1,5-a]pyrimidine]	≥ 70%	≥ 70%	≥ 70%	–	–	–
CCS(=O)(=O)c1ccc(-n2nccn2)nc1-c1ccn2nc(C(F)(F)F)cc2n1 [Compound 41, 5-(3-(ethylsulfonyl)-6-(2H-1,2,3-triazol-2-yl)pyridin-2-yl)-2-(trifluoromethyl)pyrazolo[1,5-a]pyrimidine]	≥ 70%	–	≥ 70%	≥ 70%	–	–
CCS(=O)(=O)c1cc(O)cnc1-c1ccn2nc(C(F)(F)F)nc2n1 [Compound 109, 5-(ethylsulfonyl)-6-(2-(trifluoromethyl)-[1,2,4]triazolo[1,5-a]pyrimidin-5-yl)pyridin-3-ol]	–	≥ 70%	–	–	–	–
CCS(=O)(=O)c1ccc(NC)nc1-c1ccn2nc(C(F)(F)F)cc2n1 [Compound 167, 5-(ethylsulfonyl)-N-methyl-6-(2-(trifluoromethyl)pyrazolo[1,5-a]pyrimidin-5-yl)pyridin-2-amine]	≥ 70%	≥ 70%	–	≥ 70%	–	–
CCS(=O)(=O)c1ccc(N(C)C)nc1-c1ccn2nc(C(F)(F)F)cc2n1 [Compound 166, 5-(ethylsulfonyl)-N,N-dimethyl-6-(2-(trifluoromethyl)pyrazolo[1,5-a]pyrimidin-5-yl)pyridin-2-amine]	≥ 70%	–	≥ 70%	≥ 70%	–	–
CCS(=O)(=O)c1ccc(N(C)C2CC2)nc1-c1ccn2nc(C(F)(F)F)cc2n1 [Compound 168, N-cyclopropyl-5-(ethylsulfonyl)-N-methyl-6-(2-(trifluoromethyl)pyrazolo[1,5-a]pyrimidin-5-yl)pyridin-2-amine]	≥ 70%	–	–	≥ 70%	≥ 70%	–
CCS(=O)(=O)c1ccc(-n2nccn2)nc1-c1cnc2cc(C(F)(F)F)nn2c1 [Compound 55, 6-(3-(ethylsulfonyl)-6-(2H-1,2,3-triazol-2-yl)pyridin-2-yl)-2-(trifluoromethyl)pyrazolo[1,5-a]pyrimidine]	–	–	–	–	–	≥ 70%
CCCNc1ccc(S(=O)(=O)CC)c(-c2ccn3nc(C(F)(F)F)cc3n2)n1 [Compound 244, 5-(ethylsulfonyl)-N-propyl-6-(2-(trifluoromethyl)pyrazolo[1,5-a]pyrimidin-5-yl)pyridin-2-amine]	≥ 70%	≥ 70%	–	–	–	–
CCS(=O)(=O)c1cc(-n2cnc(C)n2)cnc1-c1ncc2nc(C(F)(F)F)n(C)c2n1 [Compound 130, 2-(3-(ethylsulfonyl)-5-(3-methyl-1H-1,2,4-triazol-1-yl)pyridin-2-yl)-9-methyl-8-(trifluoromethyl)-9H-purine]	–	–	–	≥ 70%	–	–
CCS(=O)(=O)c1cc(OC(C)(C)C(N)=O)cnc1-c1ccn2nc(C(F)(F)F)cc2n1 [Compound 220, 2-((5-(ethylsulfonyl)-6-(2-(trifluoromethyl)pyrazolo[1,5-a]pyrimidin-5-yl)pyridin-3-yl)oxy)-2-methylpropanamide]	≥ 70%	≥ 70%	–	–	–	–
CCSc1cc(Br)cnc1-c1ccnc2cc(C(F)(F)F)nn12 [Compound 11, 7-(5-bromo-3-(ethylthio)pyridin-2-yl)-2-(trifluoromethyl)pyrazolo[1,5-a]pyrimidine]	–	≥ 70%	–	–	–	–
CCS(=O)(=O)c1ccc(C)nc1-c1ccn2nc(C(F)(F)F)cc2n1 [Compound 182, 5-(3-(ethylsulfonyl)-6-methylpyridin-2-yl)-2-(trifluoromethyl)pyrazolo[1,5-a]pyrimidine]	≥ 70%	≥ 70%	–	≥ 70%	–	–
CCS(=O)(=O)c1ccc(NC2CC2)nc1-c1ccn2nc(C(F)(F)F)cc2n1 [Compound 141, N-cyclopropyl-5-(ethylsulfonyl)-6-(2-(trifluoromethyl)pyrazolo[1,5-a]pyrimidin-5-yl)pyridin-2-amine]	≥ 70%	≥ 70%	–	≥ 70%	–	–
CCS(=O)(=O)c1ccc(N)nc1-c1ccn2nc(C(F)(F)F)cc2n1 [Compound 174, 5-(ethylsulfonyl)-6-(2-(trifluoromethyl)pyrazolo[1,5-a]pyrimidin-5-yl)pyridin-2-amine]	≥ 70%	–	–	≥ 70%	–	–
